Results from patent publication US5075499A, “Calcium supplementation by dicalcium citrate-lactate” (Board of Regents, The University of Texas System, priority 1988, dated 1991).

Assays:
[1] = cited from earlier work
[2] = cited from earlier work; for effectiveness in raising urinary citrate compared with tricalcium dicitrate: vs tricalcium dicitrate
[3] = Bulk density of the dried granular composition; format: physicochemical
Description: 38.4 grams of citric acid powder and 40 grams of calcium carbonate were thoroughly mixed in a large beaker. 36 grams of lactic acid, 50 weight percent solution, was slowly added with rapid stirring. 40 grams of water was then introduced slowly in small portions, each portion was added after the CO2 evolution slowed or ceased. After drying, the material was sized and found to have a bulk density greater than 1.1 g/cc. Bulk density was determined by an Archimedean method. This dense granular dicalcium citrate-lactate was subjected to compression tableting to form tablets containing 10 meq (200 milligrams) of calcium, and 7.5 meq (472 milligrams) of citrate, with a size of 0.29 (7.47 millimeters) inch by 0.74 (1.9 centimeters) inch.
The dicalcium citrate-lactate tablets of the present invention were also produced on a large scale. 38.4 kilograms of citric acid powder and calcium carbonate were placed in a Colton 7 cubic ft. ribbon mixer and blended for 2 minutes. Thirty six kilograms of the lactic acid, 50 weight percent solution, were added in approximately three equal portions, 3 minutes apart with continuous mixing. Water (40 kilograms) was added in approximately four equal portions 2-3 minutes apart with continuous mixing. Mixing continued for 10 minutes. The resultant granular and lumpy material was passed through a Fitzmill, knives forward, with no screen, trayed and dried at 212° F.-221° F. (100° C.-105° C.) for three hours. The dried product was sized and its bulk density was determined to be greater than 1.1 g/cc. The sizing was done using a Fitzmill Model No. 6 with a 31262AA screen.
The procedure previously described in Example 2 was followed with the exception of calcium carbonate being replaced by calcium oxide. Dicalcium citrate-lactate having a bulk density of greater than 0.7 g/cc was produced.
The procedure previously described in Example 2 was followed with the exception of calcium carbonate being replaced by calcium hydroxide. Calcium citrate lactate having a bulk density of greater than 0.8 g/cc was produced.

[4] = osteoporosis prone postmenopausal women; cited from earlier work
[5] = cited from earlier work; remark: listed apart in the source
[6] = Calcium absorption from oral tablets (increment in urinary calcium during the second two hours, Example 5); conditions: 400 mg elemental calcium, ten normal volunteers, SD
Description: Calcium absorption was measured from the increment in urinary calcium during the second two hours following the administration of the oral calcium tablets.
The calcium absorption was measured from the increment in urinary calcium during the second two hours following oral calcium load, expressed as mg calcium/dl glomerular filtrate (GF).

O=C(O)[C@H](O)[C@@H](O)[C@H](O)[C@H](O)CO [calcium gluconate]
aqueous solubility [1]: high aqueous solubility
effectiveness in raising urinary citrate compared with tricalcium dicitrate [2]: not as effective as tricalcium dicitrate

CC(O)C(=O)[O-].O=C([O-])CC(O)(CC(=O)[O-])C(=O)[O-].[Ca+2].[Ca+2] [dicalcium citrate-lactate]
bulk density ([3]; from calcium carbonate, large batch (Example 2)): greater than 1.1 g/cc
bulk density ([3]; from calcium carbonate, small batch (Example 1), Archimedean method): greater than 1.1 g/cc
bulk density ([3]; from calcium hydroxide, large batch (Example 4)): greater than 0.8 g/cc
bulk density ([3]; from calcium oxide, large batch (Example 3)): greater than 0.7 g/cc

O=C(O)O [calcium carbonate]
prevention of further bone losses [4]: to a lesser extent

CC(O)C(=O)O (stereo not drawn) [calcium lactate]
effectiveness in raising urinary citrate compared with tricalcium dicitrate [2]: not as effective as tricalcium dicitrate

O=C(O)CC(O)(CC(=O)O)C(=O)O [tricalcium dicitrate]
urinary citrate ([2]; Harvey, Zobitz and Pak 1985): increased urinary citrate
precipitation out of simulated duodenal juice [5]: did not precipitate out of simulated duodenal juice
calcium absorption (increment in urinary calcium) [6]: 0.044±0.051 mg/dl GF

estrogen
prevention of further bone losses [4]: further bone losses in osteoporosis prone postmenopausal women may be prevented
